Assay type in all cases: biochemical
One test concerns the target T1, cathepsin B (Homo sapiens, UniProt P07858).
T1 construct: cathepsin B—isolated from human liver (Calbiochem #219362); purchased Calbiochem 219362; host or cells: human liver (tissue-derived)
Briefly: Cathepsin B enzyme inhibition in vitro (kinetic fluorescence assay). The following applies: cathepsin B isolated from human liver vs calpain I. A digest of the protocol:
(§1)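 Cathepsin B (0.25 nM, human liver) with 100 μM Z-Phe-Arg-AMC; L (1 nM, human liver) with 2 μM Z-Phe-Arg-AMC; S (0.5 nM, recombinant) with 20 μM Z-Val-Val-Arg-AMC. pH 6.0 MES buffer, 2.5 mM L-cysteine, room temperature. Kinetic fluorescence (ex 390/em 460 nm); apparent Ki from IC50 by Cheng-Prusoff.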

A further test deals with T2, cathepsin K (Homo sapiens, UniProt P43235).
T2 construct: purchased Calbiochem 342001; host or cells: E. coli
T2 sequence (P43235 115-329): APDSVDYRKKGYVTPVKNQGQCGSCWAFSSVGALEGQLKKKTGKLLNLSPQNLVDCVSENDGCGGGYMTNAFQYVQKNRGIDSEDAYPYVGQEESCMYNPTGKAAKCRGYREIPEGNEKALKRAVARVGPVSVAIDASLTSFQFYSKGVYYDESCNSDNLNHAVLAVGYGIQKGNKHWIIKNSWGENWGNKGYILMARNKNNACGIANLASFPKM
Put plainly: Cathepsin K enzyme inhibition in vitro (kinetic fluorescence assay). The following applies: cathepsin K activated from recombinant human procathepsin K vs calpain I.

The next test addresses T3, cathepsin L (Homo sapiens, UniProt P07711).
T3 construct: cathepsin L—isolated from human liver (Calbiochem #219402); purchased Calbiochem 219402; host or cells: human liver (tissue-derived)
Put plainly: Cathepsin L enzyme inhibition in vitro (kinetic fluorescence assay). The conditions noted are these: cathepsin L isolated from human liver vs calpain I. A digest of the protocol: as §1

A further test addresses T4, cathepsin S (Homo sapiens, UniProt P25774).
T4 construct: purchased Calbiochem 219343; host or cells: E. coli
Briefly: Cathepsin S enzyme inhibition in vitro (kinetic fluorescence assay). The following applies: recombinant human cathepsin S vs calpain I. A digest of the protocol:
as §1

T4 sequence (P25774 115-331): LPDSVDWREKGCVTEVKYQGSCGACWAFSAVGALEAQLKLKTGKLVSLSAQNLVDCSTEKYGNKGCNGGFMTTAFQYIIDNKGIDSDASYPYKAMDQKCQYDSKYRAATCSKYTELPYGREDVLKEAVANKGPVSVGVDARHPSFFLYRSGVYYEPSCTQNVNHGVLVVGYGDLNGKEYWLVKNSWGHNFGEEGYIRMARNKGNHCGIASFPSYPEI
T3 sequence (P07711 114-333): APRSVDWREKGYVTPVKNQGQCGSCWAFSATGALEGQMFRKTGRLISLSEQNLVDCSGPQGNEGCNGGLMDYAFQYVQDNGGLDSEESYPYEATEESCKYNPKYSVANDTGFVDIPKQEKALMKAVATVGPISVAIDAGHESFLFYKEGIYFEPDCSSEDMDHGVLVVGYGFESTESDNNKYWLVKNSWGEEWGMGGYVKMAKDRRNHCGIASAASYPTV

Consider `COc1ccc(CC(NC(=O)c2cccnc2-n2ccc(-c3ccc(F)cc3F)n2)C(=O)C(N)=O)cc1` (stereo not shown) [Example 97, N-(3-Amino-1-{[4-(methyloxy)phenyl]methyl}-2,3-dioxopropyl)-2-[3-(2,4-difluorophenyl)-1H-pyrazol-1-yl]pyridine-3-carboxamide], for which the “Sel cat. B: Ki(cathepsin B)/Ki(calpain) ratio” value at cathepsin B is on record as “++ (++ means a Ki(cathepsin B)/Ki(calpain) ratio of ≧30)”. Moreover, the “Sel cat. K: Ki(cathepsin K)/Ki(calpain) ratio” value at cathepsin K was “+ (+ means 10≦Ki(cathepsin K)/Ki(calpain)<30)”. Further, the “Sel cat. L: Ki(cathepsin L)/Ki(calpain) ratio” value at cathepsin L was “++ (++ means a Ki(cathepsin L)/Ki(calpain) ratio of ≧50)”. Moreover, the “Sel cat. S: Ki(cathepsin S)/Ki(calpain) ratio” value at cathepsin S is recorded as “++ (++ means a Ki(cathepsin S)/Ki(calpain) ratio of ≧100)”.
Consider `COc1ccc(CC(NC(=O)c2cccnc2-n2ccc(-c3ccc(Cl)cc3Cl)n2)C(=O)C(N)=O)cc1` (stereo not shown) [Example 98, N-(3-Amino-1-{[4-(methyloxy)phenyl]methyl}-2,3-dioxopropyl)-2-[3-(2,4-dichlorophenyl)-1H-pyrazol-1-yl]pyridine-3-carboxamide], for which the “Sel cat. B: Ki(cathepsin B)/Ki(calpain) ratio” value at cathepsin B was “++ (++ means a Ki(cathepsin B)/Ki(calpain) ratio of ≧30)”. The “Sel cat. K: Ki(cathepsin K)/Ki(calpain) ratio” value on cathepsin K is reported as “++ (++ means a Ki(cathepsin K)/Ki(calpain) ratio of ≧30)”. Moreover, the “Sel cat. L: Ki(cathepsin L)/Ki(calpain) ratio” value at cathepsin L is reported as “++ (++ means a Ki(cathepsin L)/Ki(calpain) ratio of ≧50)”. Further, the “Sel cat. S: Ki(cathepsin S)/Ki(calpain) ratio” value on cathepsin S is “++ (++ means a Ki(cathepsin S)/Ki(calpain) ratio of ≧100)”.
For the compound `NC(=O)C(=O)C(Cc1ccccc1)NC(=O)c1cccnc1-n1ccc(-c2ccc(N3CCOCC3)cc2Cl)n1` (stereo not shown) [Example 99, N-[3-Amino-2,3-dioxo-1-(phenylmethyl)propyl]-2-[3-(2-chloro-4-morpholin-4-ylphenyl)-1H-pyrazol-1-yl]pyridine-3-carboxamide], the “Sel cat. B: Ki(cathepsin B)/Ki(calpain) ratio” value at cathepsin B is “++ (++ means a Ki(cathepsin B)/Ki(calpain) ratio of ≧30)”. For the same compound, the “Sel cat. K: Ki(cathepsin K)/Ki(calpain) ratio” value on cathepsin K is recorded as “++ (++ means a Ki(cathepsin K)/Ki(calpain) ratio of ≧30)”. In addition, at cathepsin L, the “Sel cat. L: Ki(cathepsin L)/Ki(calpain) ratio” value was “++ (++ means a Ki(cathepsin L)/Ki(calpain) ratio of ≧50)”. The “Sel cat. S: Ki(cathepsin S)/Ki(calpain) ratio” value at cathepsin S is on record as “++ (++ means a Ki(cathepsin S)/Ki(calpain) ratio of ≧100)”.
For the compound `NC(=O)C(=O)C(Cc1ccccc1)NC(=O)c1cccnc1-n1cc2c(n1)-c1ccccc1OC2` (stereo not shown) [Example 100, N-[3-Amino-2,3-dioxo-1-(phenylmethyl)propyl]-2-chromeno[4,3-c]pyrazol-2(4H)-ylpyridine-3-carboxamide], on cathepsin B, the “Sel cat. B: Ki(cathepsin B)/Ki(calpain) ratio” value was “+ (+ means 10≦Ki(cathepsin B)/Ki(calpain)<30)”. In addition, on cathepsin K, the “Sel cat. K: Ki(cathepsin K)/Ki(calpain) ratio” value was “++ (++ means a Ki(cathepsin K)/Ki(calpain) ratio of ≧30)”. The “Sel cat. L: Ki(cathepsin L)/Ki(calpain) ratio” value on cathepsin L is reported as “++ (++ means a Ki(cathepsin L)/Ki(calpain) ratio of ≧50)”. Moreover, the “Sel cat. S: Ki(cathepsin S)/Ki(calpain) ratio” value on cathepsin S is recorded as “++ (++ means a Ki(cathepsin S)/Ki(calpain) ratio of ≧100)”.
On to `NC(=O)C(=O)C(Cc1ccccc1)NC(=O)c1cccnc1-n1ccc(-c2ccc(N3CCOCC3)cc2F)n1` (stereo not shown) [Example 102, N-[3-Amino-2,3-dioxo-1-(phenylmethyl)propyl]-2-[3-(2-fluoro-4-morpholin-4-ylphenyl)-1H-pyrazol-1-yl]pyridine-3-carboxamide], for which the “Sel cat. B: Ki(cathepsin B)/Ki(calpain) ratio” value at cathepsin B is listed as “+ (+ means 10≦Ki(cathepsin B)/Ki(calpain)<30)”. Also, the “Sel cat. K: Ki(cathepsin K)/Ki(calpain) ratio” value on cathepsin K is given as “++ (++ means a Ki(cathepsin K)/Ki(calpain) ratio of ≧30)”. In addition, the “Sel cat. L: Ki(cathepsin L)/Ki(calpain) ratio” value on cathepsin L is listed as “++ (++ means a Ki(cathepsin L)/Ki(calpain) ratio of ≧50)”. In addition, the “Sel cat. S: Ki(cathepsin S)/Ki(calpain) ratio” value at cathepsin S is listed as “++ (++ means a Ki(cathepsin S)/Ki(calpain) ratio of ≧100)”.
`NC(=O)C(=O)C(Cc1ccccc1)NC(=O)c1cccnc1-n1ccc(-c2ccc(Cl)s2)n1` (stereo not shown) [Example 103, N-[3-Amino-2,3-dioxo-1-(phenylmethyl)propyl]-2-[3-(5-chloro-2-thienyl)-1H-pyrazol-1-yl]pyridine-3-carboxamide]: the “Sel cat. B: Ki(cathepsin B)/Ki(calpain) ratio” value at cathepsin B is on record as “+ (+ means 10≦Ki(cathepsin B)/Ki(calpain)<30)”. On cathepsin K, the “Sel cat. K: Ki(cathepsin K)/Ki(calpain) ratio” value is listed as “+ (+ means 10≦Ki(cathepsin K)/Ki(calpain)<30)”. For the same compound, the “Sel cat. L: Ki(cathepsin L)/Ki(calpain) ratio” value on cathepsin L is given as “++ (++ means a Ki(cathepsin L)/Ki(calpain) ratio of ≧50)”. Besides, the “Sel cat. S: Ki(cathepsin S)/Ki(calpain) ratio” value at cathepsin S is reported as “++ (++ means a Ki(cathepsin S)/Ki(calpain) ratio of ≧100)”.
For `NC(=O)C(=O)[C@H](Cc1ccccc1)NC(=O)c1cccnc1-n1ccc(-c2ccccc2)n1` [Example 107, N-[(1S)-3-Amino-2,3-dioxo-1-(phenylmethyl)propyl]-2-(3-phenyl-1H-pyrazol-1-yl)pyridine-3-carboxamide], on cathepsin B, the “Sel cat. B: Ki(cathepsin B)/Ki(calpain) ratio” value is reported as “+ (+ means 10≦Ki(cathepsin B)/Ki(calpain)<30)”. Besides, the “Sel cat. K: Ki(cathepsin K)/Ki(calpain) ratio” value at cathepsin K is “+ (+ means 10≦Ki(cathepsin K)/Ki(calpain)<30)”. Besides, the “Sel cat. L: Ki(cathepsin L)/Ki(calpain) ratio” value on cathepsin L is reported as “++ (++ means a Ki(cathepsin L)/Ki(calpain) ratio of ≧50)”. Further, the “Sel cat. S: Ki(cathepsin S)/Ki(calpain) ratio” value on cathepsin S is “++ (++ means a Ki(cathepsin S)/Ki(calpain) ratio of ≧100)”.
In the case of `NC(=O)C(=O)C(Cc1ccccc1)NC(=O)c1cccnc1-n1ccc(-c2sccc2Cl)n1` (stereo not shown) [Example 109, N-[3-Amino-2,3-dioxo-1-(phenylmethyl)propyl]-2-[3-(3-chloro-2-thienyl)-1H-pyrazol-1-yl]pyridine-3-carboxamide], the “Sel cat. B: Ki(cathepsin B)/Ki(calpain) ratio” value on cathepsin B is given as “++ (++ means a Ki(cathepsin B)/Ki(calpain) ratio of ≧30)”. The “Sel cat. K: Ki(cathepsin K)/Ki(calpain) ratio” value at cathepsin K is “++ (++ means a Ki(cathepsin K)/Ki(calpain) ratio of ≧30)”. Further, the “Sel cat. L: Ki(cathepsin L)/Ki(calpain) ratio” value on cathepsin L is listed as “++ (++ means a Ki(cathepsin L)/Ki(calpain) ratio of ≧50)”. Also, the “Sel cat. S: Ki(cathepsin S)/Ki(calpain) ratio” value at cathepsin S is given as “++ (++ means a Ki(cathepsin S)/Ki(calpain) ratio of ≧100)”.
For `NC(=O)C(=O)C(Cc1ccccc1)NC(=O)c1cccnc1-n1ccc(-c2cccc3ccccc23)n1` (stereo not shown) [Example 110, N-[3-Amino-2,3-dioxo-1-(phenylmethyl)propyl]-2-(3-naphthalen-1-yl-1H-pyrazol-1-yl)pyridine-3-carboxamide], at cathepsin B, the “Sel cat. B: Ki(cathepsin B)/Ki(calpain) ratio” value is reported as “++ (++ means a Ki(cathepsin B)/Ki(calpain) ratio of ≧30)”. Besides, the “Sel cat. K: Ki(cathepsin K)/Ki(calpain) ratio” value on cathepsin K was “++ (++ means a Ki(cathepsin K)/Ki(calpain) ratio of ≧30)”. The “Sel cat. L: Ki(cathepsin L)/Ki(calpain) ratio” value on cathepsin L is “++ (++ means a Ki(cathepsin L)/Ki(calpain) ratio of ≧50)”. The “Sel cat. S: Ki(cathepsin S)/Ki(calpain) ratio” value at cathepsin S was “++ (++ means a Ki(cathepsin S)/Ki(calpain) ratio of ≧100)”.
On to `COc1ccc(CC(NC(=O)c2cccnc2-n2ccc(-c3ccc(F)cc3Cl)n2)C(=O)C(N)=O)cc1` (stereo not shown) [Example 111, N-(3-Amino-1-{[4-(methyloxy)phenyl]methyl}-2,3-dioxopropyl)-2-[3-(2-chloro-4-fluorophenyl)-1H-pyrazol-1-yl]pyridine-3-carboxamide], for which the “Sel cat. B: Ki(cathepsin B)/Ki(calpain) ratio” value on cathepsin B is given as “++ (++ means a Ki(cathepsin B)/Ki(calpain) ratio of ≧30)”. In addition, the “Sel cat. K: Ki(cathepsin K)/Ki(calpain) ratio” value at cathepsin K is listed as “++ (++ means a Ki(cathepsin K)/Ki(calpain) ratio of ≧30)”. For the same compound, the “Sel cat. L: Ki(cathepsin L)/Ki(calpain) ratio” value at cathepsin L is “++ (++ means a Ki(cathepsin L)/Ki(calpain) ratio of ≧50)”. Moreover, at cathepsin S, the “Sel cat. S: Ki(cathepsin S)/Ki(calpain) ratio” value was “++ (++ means a Ki(cathepsin S)/Ki(calpain) ratio of ≧100)”.
The matching figures for `NC(=O)C(=O)C(Cc1ccccc1)NC(=O)c1cccnc1-n1ccc(-c2cc(Cl)ccc2Cl)n1` (stereo not shown) [Example 112, N-[3-Amino-2,3-dioxo-1-(phenylmethyl)propyl]-2-[3-(2,5-dichlorophenyl)-1H-pyrazol-1-yl]pyridine-3-carboxamide]: “++ (++ means a Ki(cathepsin B)/Ki(calpain) ratio of ≧30)”, “++ (++ means a Ki(cathepsin K)/Ki(calpain) ratio of ≧30)”, “++ (++ means a Ki(cathepsin L)/Ki(calpain) ratio of ≧50)” and “++ (++ means a Ki(cathepsin S)/Ki(calpain) ratio of ≧100)”.
For `NC(=O)C(=O)C(Cc1ccc(F)cc1)NC(=O)c1cccnc1-n1ccc(-c2ccc(Cl)cc2Cl)n1` (stereo not shown) [Example 114, N-{-3-Amino-1-[(4-fluorophenyl)methyl]-2,3-dioxopropyl}-2-[3-(2,4-dichlorophenyl)-1H-pyrazol-1-yl]pyridine-3-carboxamide], at cathepsin B, the “Sel cat. B: Ki(cathepsin B)/Ki(calpain) ratio” value was “++ (++ means a Ki(cathepsin B)/Ki(calpain) ratio of ≧30)”. Further, the “Sel cat. K: Ki(cathepsin K)/Ki(calpain) ratio” value on cathepsin K is “++ (++ means a Ki(cathepsin K)/Ki(calpain) ratio of ≧30)”. Moreover, on cathepsin L, the “Sel cat. L: Ki(cathepsin L)/Ki(calpain) ratio” value was “++ (++ means a Ki(cathepsin L)/Ki(calpain) ratio of ≧50)”. Further, the “Sel cat. S: Ki(cathepsin S)/Ki(calpain) ratio” value at cathepsin S is recorded as “++ (++ means a Ki(cathepsin S)/Ki(calpain) ratio of ≧100)”.
For `NC(=O)C(=O)C(Cc1ccccc1)NC(=O)c1cccnc1-n1ccc(-c2cccc(Cl)c2Cl)n1` (stereo not shown) [Example 115, N-[3-Amino-2,3-dioxo-1-(phenylmethyl)propyl]-2-[3-(2,3-dichlorophenyl)-1H-pyrazol-1-yl]pyridine-3-carboxamide], in that order: “++ (++ means a Ki(cathepsin B)/Ki(calpain) ratio of ≧30)”, “++ (++ means a Ki(cathepsin K)/Ki(calpain) ratio of ≧30)”, “++ (++ means a Ki(cathepsin L)/Ki(calpain) ratio of ≧50)” and “++ (++ means a Ki(cathepsin S)/Ki(calpain) ratio of ≧100)”.

The record behind these values is patent US7799809B2, “Carboxamide compounds and their use as calpain inhibitors” (Abbott GmbH & Co. KG, priority 2006, dated 2010).
